Reference: article PMC6042085 (Proceedings of the National Academy of Sciences of the …, 2018)

Biological target: T1, PriSLX (Saccharolobus solfataricus, UniProt Q97Z83+Q97ZS7)
T1 sequence (Q97Z83 1-330): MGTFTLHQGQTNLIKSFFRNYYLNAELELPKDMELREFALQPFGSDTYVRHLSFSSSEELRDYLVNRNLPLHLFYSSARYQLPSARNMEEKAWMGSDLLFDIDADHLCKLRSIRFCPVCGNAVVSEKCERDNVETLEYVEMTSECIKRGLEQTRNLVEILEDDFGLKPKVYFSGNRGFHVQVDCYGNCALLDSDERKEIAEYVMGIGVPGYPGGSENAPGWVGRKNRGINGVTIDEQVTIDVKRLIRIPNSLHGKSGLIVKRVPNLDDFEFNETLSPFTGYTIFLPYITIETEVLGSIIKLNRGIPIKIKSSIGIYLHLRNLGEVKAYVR
T1 sequence (Q97ZS7 1-154): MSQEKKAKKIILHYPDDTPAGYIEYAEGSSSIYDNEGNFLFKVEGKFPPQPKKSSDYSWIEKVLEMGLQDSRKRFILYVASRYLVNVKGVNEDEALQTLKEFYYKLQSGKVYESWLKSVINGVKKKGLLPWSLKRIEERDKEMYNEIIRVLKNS
T1 sequence (Q9UWW1 1-307 partner): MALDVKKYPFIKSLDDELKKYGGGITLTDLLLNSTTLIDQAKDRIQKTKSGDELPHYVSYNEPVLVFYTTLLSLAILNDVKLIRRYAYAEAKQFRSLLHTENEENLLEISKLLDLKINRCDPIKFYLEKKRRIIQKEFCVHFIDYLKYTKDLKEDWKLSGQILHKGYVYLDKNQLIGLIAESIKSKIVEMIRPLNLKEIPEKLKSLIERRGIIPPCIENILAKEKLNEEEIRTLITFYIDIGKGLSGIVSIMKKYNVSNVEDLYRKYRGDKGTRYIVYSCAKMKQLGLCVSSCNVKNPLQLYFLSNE
Assay: primer synthesis, […]-labelled nucleotide, gel
Type: biochemical
Conditions: poly(dT) template; pH 6.0, 10 mM MnCl2, 10 µM ZnCl2, 75 °C

Compound: Nc1ncnc2c1ncn2[C@H]1C[C@H](O)[C@@H](COP(=O)(O)OP(=O)(O)OP(=O)(O)O)O1 [dATP]
- primer synthesis, 32P-labelled nucleotide, gel: reactions with solely dATP as substrate primarily generate a lower yield
